Data reported in article PMC4145793, “Inhibitory and Acceleratory Effects of Inonotus obliquus on Tyrosinase Activity and Melanin Formation in B16 Melanoma Cells” (Evidence-based Complementary and Alternative Medicine : eCAM, 2014).
≈ marks a conversion by molar mass, not a printed value. Where “and” joins values, the source holds several entries; their conditions need not be identical. Identical values can stand only once. Like-named read-outs stand apart in the source and are kept apart here.

What was measured:
[1] = cell viability, MTT colorimetric assay; assay type: cell-based; conditions: mouse
Description: (§1) To determine the safety of the various compounds, after treatment with the test compounds cell viability was determined by using MTT colorimetric assay and cell apoptosis rate by using AnnexinV-FITC apoptosis analysis kit (Tianjin Sungene Biotech Co., Ltd). 1 × 10^6 cells were added to individual wells of a 24-well plate. […] Cell viability was determined in a colorimetric assay using mitochondrial dehydrogenase activity in active mitochondria to form purple formazan. Apoptosis rate in a fluorochrome assay using flow cytometry (BD, USA).

[2] = tested on: B16 melanoma cells; assay: cell viability, MTT colorimetric assay; assay type: cell-based; conditions: for reduction of viable cells: at the higher doses; for cytotoxic activity (reduction of viable cells): dose of 100 μM; for cytotoxic effect: 100, 200, 400 μM, as a whole
Description: as §1

[3] = tested on: B16 melanoma cells; assay: cell apoptosis rate, AnnexinV-FITC flow cytometry; assay type: cell-based; conditions: 72 h
Description: as §1

[4] = tested on: cellular tyrosinase in B16 melanoma cells; assay: cellular tyrosinase activity in B16 melanoma cells; assay type: cell-based; conditions: for inhibition at 400 µM: Mus musculus, read-out: inhibition on cellular tyrosinase activity; for effect on cellular tyrosinase activity: 100-400 μM
[5] = tested on: B16 melanoma cells; assay: cellular melanin content in B16 melanoma cells; assay type: cell-based; conditions: 100-400 μM, 72 h
Description: For melanin content, the cells were treated with test compounds or kojic acid in the presence or absence of α-MSH as described above. The cells were washed with PBS and lyzed with 800 μL of 1 N NaOH (Sigma, USA) containing 10% DMSO for 1 h at 80°C. The absorbance at 400 nm was measured. The melanin content was determined from a standard curve prepared from an authentic standard of synthetic melanin (Sigma, USA).

[6] = molecular target: T1, tyrosinase in B16 melanoma cells (Mus musculus, UniProt P11344); assay: kinetic analysis of tyrosinase activity inhibition, B16 lysate protein, L-DOPA substrate, Lineweaver-Burk plot; assay type: biochemical; conditions: for K IS (inhibition constant) / mode of inhibition: L-DOPA substrate; for K IS (inhibition constant): from intercept of Lineweaver-Burk plots; for mode of inhibition: Lineweaver-Burk plot
T1 construct: Each well of a 96-well plate contained 40 μg of lysate protein; endogenous in cells; host or cells: B16 melanoma cells (lysate)
T1 sequence (P11344 19-533): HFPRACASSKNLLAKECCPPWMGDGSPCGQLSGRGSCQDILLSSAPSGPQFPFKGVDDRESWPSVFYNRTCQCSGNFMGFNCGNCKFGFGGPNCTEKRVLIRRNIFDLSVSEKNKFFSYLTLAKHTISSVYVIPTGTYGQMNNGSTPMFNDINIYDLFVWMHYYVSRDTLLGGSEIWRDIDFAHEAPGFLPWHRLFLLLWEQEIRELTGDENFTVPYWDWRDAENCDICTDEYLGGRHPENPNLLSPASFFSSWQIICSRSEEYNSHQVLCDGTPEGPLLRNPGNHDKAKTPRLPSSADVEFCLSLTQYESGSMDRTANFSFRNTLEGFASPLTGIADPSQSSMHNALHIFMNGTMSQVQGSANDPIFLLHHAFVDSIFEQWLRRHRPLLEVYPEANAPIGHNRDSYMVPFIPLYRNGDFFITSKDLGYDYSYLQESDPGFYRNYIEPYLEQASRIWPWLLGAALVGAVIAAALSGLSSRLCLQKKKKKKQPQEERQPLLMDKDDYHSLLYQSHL
Description: The cells were treated with test compounds as described above for the determination of tyrosinase activity. […] After incubation at 37°C for 30 min, the absorbance was measured at 475 nm. The inhibition constants for compounds and inhibition type were calculated using Lineweaver-Burk plot. The Lineweaver-Burk plot was widely used to determine important terms in enzyme kinetics, such as K m and V max. The plot provided a useful graphical method for analysis of the Michaelis-Menten equation: V = V max [S]/(K m + [S]). It took the reciprocal gave Lineweaver-Burk plot: 1/V = (K m + [S])/V max [S] = ((K m/V max)(1/ [S])) + (1/V max), where V is the reaction velocity (the reaction rate), K m is the Michaelis-Menten constant, V max is the maximum reaction velocity, and [S] is the substrate concentration. The y-intercept of such a graph was equivalent to the inverse of V max; the x-intercept of the graph represents −1/K m. It also gave a quick, visual impression of the different forms of enzyme inhibition. The inhibition constant (K I or K IS) was generated from the slope of the apparent […]/V max or 1/V max versus the concentrations of compounds.

[7] = molecular target: T1, tyrosinase in B16 melanoma cells; assay: as above; assay type: biochemical; conditions: read-out: AC50, negative inhibition (acceleration) effect on tyrosinase
[8] = tested on: Mushroom tyrosinase; assay: cell-free mushroom tyrosinase assay of fractions (L-Tyr substrate); assay type: biochemical; conditions: L-Tyr as substrate, fractions at 0-12 μg/mL
Description: Mushroom tyrosinase and L-Tyr were reconstituted in 50 mM Na2HPO4-NaH2PO4 buffer (pH 6.8) at 1000 U/mL and 2.5 mM, respectively. A mixture of 60 μL of 50 mM Na2HPO4-NaH2PO4 buffer (pH 6.8) and 100 μL L-Tyr was designated as solution 1 (control group). […] Solutions 1 and 2 were added to 40 μL tyrosinase for 6 min reaction time at 37°C, individually. Absorbance of the resulting solutions was recorded every min by Beckman TU-1810 spectrophotometer at 475 nm. One unit of tyrosinase activity was arbitrarily defined as a rate of increase of 1 absorbance unit per min in the initial linear region of a plot of absorbance against time. The tyrosinase activity determined by the increasing absorbance at 475 nm accompanying by the oxidation of the substrates was calculated as the following formula [20]: (1) Tyrosinase activity %=A2/A1×100, where A1 is absorbance at 475 nm with solutions 1 and tyrosinase and A2 is absorbance at 475 nm with solutions 2 and tyrosinase.

[9] = 100 μM, 72 h, percentage of controls (mean ± SD), read-out: Cell viability
[10] = 200 μM, 72 h, percentage of controls (mean ± SD), read-out: Cell viability
[11] = 400 μM, 72 h, percentage of controls (mean ± SD), read-out: Cell viability
[12] = 100 μM, control set as 0% (mean ± SD)
[13] = 200 μM, control set as 0% (mean ± SD)
[14] = 400 μM, control set as 0% (mean ± SD)
[15] = absence of α-MSH stimulation, 72 h
[16] = α-MSH-stimulated (100 μM α-MSH), 72 h
[17] = α-MSH-stimulated (100 μM α-MSH)
[18] = B16 melanoma cells, 100 μM, 72 h, percentage of controls (mean ± SD), read-out: Cell viability
[19] = B16 melanoma cells, 200 μM, 72 h, percentage of controls (mean ± SD), read-out: Cell viability
[20] = B16 melanoma cells, 400 μM, 72 h, percentage of controls (mean ± SD), read-out: Cell viability

Row | SMILES | Apoptosis rate [3, 12] | Apoptosis rate [3, 13] | Apoptosis rate [3, 14] | effect on cellular tyrosinase activity [4, 15] | effect on cellular tyrosinase activity [4, 16] | effect on cellular melanin content ([5]; absence of α-MSH stimulation) | effect on cellular melanin content [5, 17] | viability at 72 h, 100 µM [1, 18] | viability at 72 h, 200 µM [1, 19] | viability at 72 h, 400 µM [1, 20] | cytotoxic effect [2] | also measured
1 | C=C(C)[C@@H]1CC[C@]2(CO)CC[C@]3(C)[C@H](CC[C@@H]4[C@@]5(C)CC[C@H](O)C(C)(C)[C@@H]5CC[C@]43C)[C@@H]12 [Fa-a, betulin] | 9.01 ± 2.21% | 12.21 ± 3.03% | 15.31 ± 2.90% | significantly reduced cellular tyrosinase activity | able to inhibit the increase in cellular tyrosinase activity | reduced cellular melanin content | reduced cellular melanin content |  |  |  |  | viability at 72 h, 100 µM [1, 9]: 88.3 ± 3.21%; viability at 72 h, 200 µM [1, 10]: 75.1 ± 2.65%; viability at 72 h, 400 µM [1, 11]: 65.3 ± 4.41%; reduction of viable cells [2]: 34.68%; cytotoxic activity (reduction of viable cells) [2]: 11.69%; inhibition at 400 µM ([4]; B16, 400 μM, 72 h, absence of α-MSH): 30%; IC50 [6]: 5.13 µM; Ki [6]: 0.4 µM; K IS (inhibition constant) [6]: 0.4 µM; mode of inhibition [6]: noncompetitive inhibitor; mode of inhibition ([6]; listed as Betulin): noncompetitive inhibition
2 | CC(C)=CCC[C@@H](C)[C@H]1CC[C@@]2(C)C3=C(CC[C@]12C)[C@@]1(C)CC[C@H](O)C(C)(C)[C@@H]1CC3 [Fb-b, lanoserol] | 0.31 ± 4.37∗∗∗ % | 2.62 ± 3.33∗∗∗ % | 5.12 ± 2.35∗ % |  | significantly increased melanin content and cellular tyrosinase activity | significantly increased melanin content and cellular tyrosinase activity | significantly increased melanin content and cellular tyrosinase activity | 100 ± 2.56% | 96.3 ± 2.61% | 94.6 ± 3.03% | a little or no cytotoxic effect | increase of cellular tyrosinase activity ([4]; 400 μM, 72 h, absence of α-MSH): 18.21%; AC50 [7]: 8.43 µM
3 | O=C(O)c1cccnc1 [Fc-a, nicotinie acid] | 10.12% and 10.12 ± 1.14% | 25.44% and 25.44 ± 1.53∗∗∗ % | 30.51% and 30.51 ± 1.11∗∗∗ % | slight or no inhibition |  |  |  | 73.5 ± 3.11% | 45.3 ± 2.56% | 40.5 ± 2.12% | highest cytotoxic effect in dose-dependent manner | 
4 | CC(C(O)CCC(C)(C)O)[C@H]1CC[C@@]2(C)C3=C(CC[C@]12C)[C@@]1(C)CC[C@H](O)C(C)(C)[C@@H]1CC3 (stereo partly drawn) [Fd-a, 3β,22,25-trihydroxy-lanosta-8-ene] |  |  |  | slight or no inhibition |  |  |  |  |  |  |  | viability at 72 h, 100 µM [1]: 96.7 ± 1.01%; viability at 72 h, 200 µM [1]: 97.1 ± 1.12%; viability at 72 h, 400 µM [1]: 85 ± 1.51%; Apoptosis rate ([3]; mouse, 100 μM): 1.21 ± 2.31%; Apoptosis rate ([3]; mouse, 200 μM): 2.15 ± 3.92%
5 | O=c1cc(CO)occ1O [kojic acid, Kojic acid, reference compound] | 9.45 ± 1.15% | 12.36 ± 1.19% | 15.05 ± 2.21% | reduced tyrosinase activity as well as melanin content | reduced tyrosinase activity as well as melanin content | reduced tyrosinase activity as well as melanin content | reduced tyrosinase activity as well as melanin content | 92.4 ± 4.41% | 86.1 ± 2.12% | 70.9 ± 3.12% |  | IC50, tyrosinase inhibitory activity [8]: 5.23 µg/mL (≈ 36.8 µM)
6 | CC(C)=CCC[C@@H](C(=O)O)[C@H]1CC[C@@]2(C)C3=C(CC[C@]12C)[C@@]1(C)CC[C@H](O)C(C)(C)[C@@H]1CC3 [Fa-b, trametenolic acid] | 5.11 ± 4.01% | 6.51 ± 3.31% | 10.09 ± 4.31% | significantly reduced cellular tyrosinase activity | able to inhibit the increase in cellular tyrosinase activity | reduced cellular melanin content | reduced cellular melanin content |  |  |  |  | viability at 72 h, 100 µM [1, 9]: 96.5 ± 3.08%; viability at 72 h, 200 µM [1, 10]: 85.3 ± 4.13%; viability at 72 h, 400 µM [1, 11]: 70 ± 2.05%; reduction of viable cells [2]: 29.98%; cytotoxic activity (reduction of viable cells) [2]: 4.55%; inhibition at 400 µM ([4]; B16, 72 h): 23%; IC50 [6]: 7.25 µM; Ki [6]: 0.9 µM; K IS (inhibition constant) [6]: 0.5 µM; mode of inhibition [6]: mixed inhibitor; mode of inhibition ([6]; listed as trametenolic acid): mixed inhibition
7 | CC(C)=CC[C@@H](O)[C@@H](C)[C@H]1CC[C@@]2(C)C3=C(CC[C@]12C)[C@@]1(C)CC[C@H](O)C(C)(C)[C@@H]1CC3 [Fb-a, inotodiol] | 3.91 ± 3.27% | 5.10 ± 2.61∗ % | 6.07 ± 3.53∗∗ % |  | significantly increased melanin content and cellular tyrosinase activity | significantly increased melanin content and cellular tyrosinase activity | significantly increased melanin content and cellular tyrosinase activity | 99.3 ± 1.53% | 99.4 ± 1.41% | 98.2 ± 1.35% | a little or no cytotoxic effect | increase of cellular tyrosinase activity ([4]; 400 μM, 72 h, absence of α-MSH): 21.24%; AC50 [6]: 9.74 µM
